# Measured values: US7589089B2, “Inhibitors for GlyT-1” (Hoffmann-La Roche Inc., priority 2006, dated 2009)
# Target: T1, mGlyT-1b (Mus musculus, UniProt P28571)
# T1 construct: host or cells: Flp-in-CHO
# T1 sequence (P28571 1-651 isoform P28571-2): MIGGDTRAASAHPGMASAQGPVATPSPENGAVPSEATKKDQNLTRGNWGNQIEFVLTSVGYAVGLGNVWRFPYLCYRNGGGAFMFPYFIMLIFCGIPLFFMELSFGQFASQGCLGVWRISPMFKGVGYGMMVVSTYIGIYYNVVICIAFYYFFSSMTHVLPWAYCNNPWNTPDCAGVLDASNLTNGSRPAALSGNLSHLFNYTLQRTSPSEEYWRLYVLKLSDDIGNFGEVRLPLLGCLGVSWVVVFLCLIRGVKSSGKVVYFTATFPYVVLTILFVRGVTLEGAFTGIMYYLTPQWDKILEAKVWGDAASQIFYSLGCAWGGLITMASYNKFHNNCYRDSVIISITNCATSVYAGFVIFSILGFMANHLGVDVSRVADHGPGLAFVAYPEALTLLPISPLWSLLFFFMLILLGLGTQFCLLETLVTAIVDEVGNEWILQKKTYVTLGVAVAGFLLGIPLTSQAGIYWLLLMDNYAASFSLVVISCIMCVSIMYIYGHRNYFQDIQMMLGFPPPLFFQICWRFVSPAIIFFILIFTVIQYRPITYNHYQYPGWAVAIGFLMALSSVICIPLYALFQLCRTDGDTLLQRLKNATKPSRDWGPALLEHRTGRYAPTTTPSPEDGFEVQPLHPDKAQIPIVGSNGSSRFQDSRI
# Experiment: Glycine Uptake Inhibition Assay (mGlyT-1b)
# Format: cell-based
# Experimental: DMEM complete medium: Nutrient mixture F-12 (Gibco Life-technologies), fetal bovine serum (FBS) 5%, (Gibco life technologies), Penicillin/Streptomycin 1% (Gibco life technologies), Hygromycin 0.6 mg/ml (Gibco life technologies), Glutamine 1 mM Gibco life technologies)
# Uptake buffer (UB): 150 mM NaCl, 10 mM Hepes-Tris, pH 7.4, 1 mM CaCl2, 2.5 mM KCl, 2.5 mM MgSO4, 10 mM (+) D-glucose.
# Flp-in™-CHO (Invitrogen Cat n° R758-07) cells stably transfected with mGlyT1b cDNA.
# Glycine Uptake Inhibition Assay (mGlyT-1b)
# On day 1 mammalian cells, (Flp-in™-CHO), transfected with mGlyT-1b cDNA, were plated at the density of 40,000 cells/well in complete F-12 medium, without hygromycin in 96-well culture plates. On day 2, the medium was aspirated and the cells were washed twice with uptake buffer (UB). The cells were then incubated for 20 min at 22° C. with either (i) no potential competitor, (ii) 10 mM non-radioactive glycine, (iii) a concentration of a potential inhibitor. A range of concentrations of the potential inhibitor was used to generate data for calculating the concentration of inhibitor resulting in 50% of the effect (e.g. IC50, the concentration of the competitor inhibiting glycine uptake of 50%). A solution was then immediately added containing [^3H]-glycine 60 nM (11-16 Ci/mmol) and 25 μM non-radioactive glycine. The plates were incubated with gentle shaking and the reaction was stopped by aspiration of the mixture and washing (three times) with ice-cold UB. The cells were lysed with scintillation liquid, shaken 3 hours and the radioactivity in the cells was counted using a scintillation counter.
row,IC50 [nM],SMILES
1,199,"O=C(CN(Cc1ccco1)C(=O)c1ccc(Cl)cc1)Nc1cccc(Cl)c1 [Example 107, 4-Chloro-N-[(3-chloro-phenylcarbamoyl)-methyl]-N-furan-2-ylmethyl-benzamide]"
2,265,"O=C(CN(Cc1ccc(F)c(F)c1)C(=O)c1ccc(Cl)cc1)Nc1cccc(Cl)c1 [Example 2, 4-Chloro-N-[(3-chloro-phenylcarbamoyl)-methyl]-N-(3,4-difluoro-benzyl)-benzamide]"
3,257,"COc1ccc(C(=O)N(CC(=O)Nc2ccc(Cl)c(Cl)c2)Cc2cccs2)cc1 [Example 18, N-[(3,4-Dichloro-phenylcarbamoyl)-methyl]-4-methoxy-N-thiophen-2-ylmethyl-benzamide]"
4,153,"O=C(CN(Cc1ccccc1Cl)C(=O)c1cccc(F)c1)Nc1cccc(C(F)(F)F)c1 [Example 52, N-(2-Chloro-benzyl)-3-fluoro-N-[(3-trifluoromethyl-phenylcarbamoyl)-methyl]-benzamide]"
5,357,"COc1ccc(C(=O)N(CC(=O)Nc2ccc(Cl)c(Cl)c2)C2CCCC2)cc1 [Example 126, N-Cyclopentyl-N-[(3,4-dichloro-phenylcarbamoyl)-methyl]-4-methoxy-benzamide]"
6,123,"N#Cc1ccc(C(=O)N(CC(=O)Nc2ccc(F)c(Cl)c2)Cc2cccc(F)c2F)cc1 [Example 85, N-[(3-Chloro-4-fluoro-phenylcarbamoyl)-methyl]-4-cyano-N-(2,3-difluoro-benzyl)-benzamide]"
7,182,"O=C(CN(Cc1ccccc1F)C(=O)c1ccc(Cl)nc1)Nc1cccc(Cl)c1 [Example 120, 6-Chloro-N-[(3-chloro-phenylcarbamoyl)-methyl]-N-(2-fluoro-benzyl)-nicotinamide]"
8,142,"Cc1cccc(CN(CC(=O)Nc2cccc(Cl)c2)C(=O)c2ccc(Cl)cc2)c1 [Example 103, 4-Chloro-N-[(3-chloro-phenylcarbamoyl)-methyl]-N-(3-methyl-benzyl)-benzamide]"
9,192,"N#Cc1cccc(CN(CC(=O)Nc2cccc(Cl)c2)C(=O)c2ccc(Cl)cc2)c1 [Example 100, 4-Chloro-N-[(3-chloro-phenylcarbamoyl)-methyl]-N-(3-cyano-benzyl)-benzamide]"
10,91,"O=C(CN(C(=O)c1ccc(OC(F)(F)F)cc1)c1ccccc1)Nc1ccc(Cl)c(Cl)c1 [Example 114, N-[(3,4-Dichloro-phenylcarbamoyl)-methyl]-N-phenyl-4-trifluoromethoxy-benzamide]"
11,165,"O=C(CN(Cc1cc(F)ccc1F)C(=O)c1ccc(Cl)cc1)Nc1cccc(Cl)c1 [Example 6, 4-Chloro-N-[(3-chloro-phenylcarbamoyl)-methyl]-N-(2,5-difluoro-benzyl)-benzamide]"
12,166,"O=C(CN(Cc1ccccc1Cl)C(=O)c1ccc(Cl)cc1)Nc1cccc(F)c1 [Example 59, 4-Chloro-N-(2-chloro-benzyl)-N-[(3-fluoro-phenylcarbamoyl)-methyl]-benzamide]"
13,97,"O=C(CN(Cc1ccccc1Cl)C(=O)c1ccc(F)cc1)Nc1cccc(C(F)(F)F)c1 [Example 55, N-(2-Chloro-benzyl)-4-fluoro-N-[(3-trifluoromethyl-phenylcarbamoyl)-methyl]-benzamide]"
14,350,"N#Cc1cccc(C(=O)N(CC(=O)Nc2ccc(Cl)c(Cl)c2)c2ccccc2)c1 [Example 31, 3-Cyano-N-[(3,4-dichloro-phenylcarbamoyl)-methyl]-N-phenyl-benzamide]"
15,90,"O=C(CN(Cc1c(F)cccc1F)C(=O)c1cc2ccccc2s1)Nc1ccc(F)c(Cl)c1 [Example 69, Benzo[b]thiophene-2-carboxylic acid [(3-chloro-4-fluoro-phenylcarbamoyl)-methyl]-(2,6-difluoro-benzyl)-amide]"
16,167,"O=C(CN(Cc1ccc(F)c(F)c1)C(=O)c1cc2ccccc2s1)Nc1cccc(F)c1 [Example 66, Benzo[b]thiophene-2-carboxylic acid (3,4-difluoro-benzyl)-[(3-fluoro-phenylcarbamoyl)-methyl]-amide]"
17,60,"COc1ccccc1CN(CC(=O)Nc1cccc(Cl)c1)C(=O)c1ccc(Cl)cc1 [Example 102, 4-Chloro-N-[(3-chloro-phenylcarbamoyl)-methyl]-N-(2-methoxy-benzyl)-benzamide]"

row,IC50 [nM],SMILES
1,156,"O=C(CN(Cc1ccccc1)C(=O)c1ccc(Cl)cc1)Nc1cccc(Cl)c1 [Example 16, N-Benzyl-4-chloro-N-[(3-chloro-phenylcarbamoyl)-methyl]-benzamide]"
2,291,"O=C(CN(C(=O)c1ccccc1F)c1ccccc1)Nc1ccc(Cl)c(Cl)c1 [Example 39, N-[(3,4-Dichloro-phenylcarbamoyl)-methyl]-2-fluoro-N-phenyl-benzamide]"
3,128,"O=C(CN(Cc1cccc(F)c1)C(=O)c1ccc(Cl)cc1)Nc1cccc(Cl)c1 [Example 8, 4-Chloro-N-[(3-chloro-phenylcarbamoyl)-methyl]-N-(3-fluoro-benzyl)-benzamide]"
4,369,"COc1ccc(C(=O)N(CC(=O)Nc2ccc(C)c(Cl)c2)c2ccccc2)cc1 [Example 110, N-[(3-Chloro-4-methyl-phenylcarbamoyl)-methyl]-4-methoxy-N-phenyl-benzamide]"
5,184,"O=C(CN(Cc1cc(F)cc(F)c1)C(=O)c1ccc(Cl)cc1)Nc1cccc(Cl)c1 [Example 3, 4-Chloro-N-[(3-chloro-phenylcarbamoyl)-methyl]-N-(3,5-difluoro-benzyl)-benzamide]"
6,306,"O=C(CN(Cc1cc(F)cc(F)c1)C(=O)c1ccc(Cl)cc1)Nc1ccc(F)c(Cl)c1 [Example 89, 4-Chloro-N-[(3-chloro-4-fluoro-phenylcarbamoyl)-methyl]-N-(3,5-difluoro-benzyl)-benzamide]"
7,74,"O=C(CN(Cc1ccccc1F)C(=O)c1ccc(Cl)cc1)Nc1cccc(Cl)c1 [Example 9, 4-Chloro-N-[(3-chloro-phenylcarbamoyl)-methyl]-N-(2-fluoro-benzyl)-benzamide]"
8,182,"N#Cc1ccc(C(=O)N(CC(=O)Nc2ccc(F)c(Cl)c2)Cc2ccccc2Cl)cc1 [Example 77, N-(2-Chloro-benzyl)-N-[(3-chloro-4-fluoro-phenylcarbamoyl)-methyl]-4-cyano-benzamide]"
9,278,"O=C(CN(Cc1cc(F)cc(F)c1)C(=O)c1ccc(OC(F)(F)F)cc1)Nc1cccc(F)c1 [Example 65, N-(3,5-Difluoro-benzyl)-N-[(3-fluoro-phenylcarbamoyl)-methyl]-4-trifluoromethoxy-benzamide]"
10,359,"CC(C)(C)CCN(CC(=O)Nc1cccc(Cl)c1)C(=O)c1ccc(Cl)cc1 [Example 96, 4-Chloro-N-[(3-chloro-phenylcarbamoyl)-methyl]-N-(3,3-dimethyl-butyl)-benzamide]"
11,66,"O=C(CN(Cc1cccc(F)c1F)C(=O)c1cc2ccccc2s1)Nc1ccc(F)c(Cl)c1 [Example 80, Benzo[b]thiophene-2-carboxylic acid [(3-chloro-4-fluoro-phenylcarbamoyl)-methyl]-(2,3-difluoro-benzyl)-amide]"
12,209,"Cc1ccccc1CN(CC(=O)Nc1cccc(Cl)c1)C(=O)c1ccc(Cl)cc1 [Example 104, 4-Chloro-N-[(3-chloro-phenylcarbamoyl)-methyl]-N-(2-methyl-benzyl)-benzamide]"
13,24,"COc1ccc(C(=O)N(CC(=O)Nc2cccc(Cl)c2)Cc2cccc(Cl)c2)cc1 [Example 14, N-(3-Chloro-benzyl)-N-[(3-chloro-phenylcarbamoyl)-methyl]-4-methoxy-benzamide]"
14,100,"COc1ccc(C(=O)N(CC(=O)Nc2cccc(Cl)c2)Cc2c(F)cccc2F)cc1 [Example 11, N-[(3-Chloro-phenylcarbamoyl)-methyl]-N-(2,6-difluoro-benzyl)-4-methoxy-benzamide]"
15,357,"N#Cc1ccc(C(=O)N(CC(=O)Nc2cccc(F)c2)Cc2ccccc2Cl)cc1 [Example 62, N-(2-Chloro-benzyl)-4-cyano-N-[(3-fluoro-phenylcarbamoyl)-methyl]-benzamide]"
16,74,"O=C(CN(Cc1cccc(F)c1F)C(=O)c1ccc(Cl)cc1)Nc1cccc(Cl)c1 [Example 4, 4-Chloro-N-[(3-chloro-phenylcarbamoyl)-methyl]-N-(2,3-difluoro-benzyl)-benzamide]"
